Tests used:
B2 bradykinin receptor = target: T1, B2 bradykinin receptor (Homo sapiens, UniProt P30411)
T1 sequence (P30411 whole entry): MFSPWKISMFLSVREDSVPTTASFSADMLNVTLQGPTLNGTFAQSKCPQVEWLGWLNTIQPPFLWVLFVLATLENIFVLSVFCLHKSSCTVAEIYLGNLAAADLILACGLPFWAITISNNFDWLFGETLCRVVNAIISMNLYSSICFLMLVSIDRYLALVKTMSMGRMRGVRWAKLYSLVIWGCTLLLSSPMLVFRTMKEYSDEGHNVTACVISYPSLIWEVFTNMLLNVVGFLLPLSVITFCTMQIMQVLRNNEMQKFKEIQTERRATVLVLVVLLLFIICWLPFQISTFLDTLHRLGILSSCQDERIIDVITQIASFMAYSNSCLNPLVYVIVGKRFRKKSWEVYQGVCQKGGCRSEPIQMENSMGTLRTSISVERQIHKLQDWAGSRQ

[1] = target: T2, Muscarinic acetylcholine receptor M1 (Homo sapiens, UniProt P11229); type: functional
T2 sequence (P11229 whole entry): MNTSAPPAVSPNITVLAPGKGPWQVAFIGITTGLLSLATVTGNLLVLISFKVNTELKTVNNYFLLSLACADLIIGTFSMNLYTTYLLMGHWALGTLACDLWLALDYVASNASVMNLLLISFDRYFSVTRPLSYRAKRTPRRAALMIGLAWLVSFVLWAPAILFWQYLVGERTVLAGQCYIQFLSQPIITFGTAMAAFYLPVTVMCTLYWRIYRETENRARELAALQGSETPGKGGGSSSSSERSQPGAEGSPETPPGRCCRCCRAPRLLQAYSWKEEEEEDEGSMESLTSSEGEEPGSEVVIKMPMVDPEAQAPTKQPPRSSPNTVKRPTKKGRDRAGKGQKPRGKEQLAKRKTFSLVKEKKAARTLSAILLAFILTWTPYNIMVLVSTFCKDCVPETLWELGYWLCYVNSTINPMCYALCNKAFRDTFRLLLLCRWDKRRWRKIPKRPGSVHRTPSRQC

Mu-type opioid receptor = Mu-type opioid receptor (Homo sapiens, UniProt P35372); experiment: biochemical; type: functional
[2] = target: 3',5'-cyclic-AMP phosphodiesterase 4D (Homo sapiens, UniProt Q08499); type: functional
Vasopressin V1a receptor = Vasopressin V1a receptor (Homo sapiens, UniProt P37288)
Adenosine receptor A2a = Adenosine receptor A2a (Homo sapiens, UniProt P29274)
[3] = target: 5-hydroxytryptamine receptor 2A (Homo sapiens, UniProt P28223); type: functional, cell-based
[4] = target: T3, Muscarinic acetylcholine receptor M2 (Homo sapiens, UniProt P08172); type: functional, cell-based
T3 sequence (P08172 whole entry): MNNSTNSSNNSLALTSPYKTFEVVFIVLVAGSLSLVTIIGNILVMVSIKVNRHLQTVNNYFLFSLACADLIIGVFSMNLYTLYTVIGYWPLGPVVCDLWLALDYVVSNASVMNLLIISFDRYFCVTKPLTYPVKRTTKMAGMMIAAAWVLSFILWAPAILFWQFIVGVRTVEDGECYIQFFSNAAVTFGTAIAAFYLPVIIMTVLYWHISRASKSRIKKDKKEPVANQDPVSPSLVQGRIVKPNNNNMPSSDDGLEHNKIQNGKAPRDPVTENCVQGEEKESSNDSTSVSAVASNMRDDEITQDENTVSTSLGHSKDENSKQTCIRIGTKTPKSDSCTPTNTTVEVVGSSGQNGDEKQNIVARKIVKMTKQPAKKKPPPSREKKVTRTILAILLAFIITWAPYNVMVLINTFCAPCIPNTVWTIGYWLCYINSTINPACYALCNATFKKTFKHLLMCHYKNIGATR

[5] = target: T4, 5-hydroxytryptamine receptor 1A (Homo sapiens, UniProt P08908); type: functional, cell-based
T4 sequence (P08908 whole entry): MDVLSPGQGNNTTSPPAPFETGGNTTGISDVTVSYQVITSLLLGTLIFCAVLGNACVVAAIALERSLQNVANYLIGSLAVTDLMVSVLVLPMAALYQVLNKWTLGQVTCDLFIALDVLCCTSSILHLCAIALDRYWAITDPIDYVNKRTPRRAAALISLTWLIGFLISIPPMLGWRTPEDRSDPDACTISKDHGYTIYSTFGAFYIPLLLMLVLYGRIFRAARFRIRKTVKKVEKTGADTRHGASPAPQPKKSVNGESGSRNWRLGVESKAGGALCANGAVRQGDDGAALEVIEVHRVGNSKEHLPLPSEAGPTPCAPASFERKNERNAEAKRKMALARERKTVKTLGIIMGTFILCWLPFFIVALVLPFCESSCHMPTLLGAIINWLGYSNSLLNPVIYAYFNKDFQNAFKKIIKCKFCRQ

[6] = target: Beta-2 adrenergic receptor (Homo sapiens, UniProt P07550)
Also: assay procedure not described here.

Chain of Mu-type opioid receptor (P35372 whole entry): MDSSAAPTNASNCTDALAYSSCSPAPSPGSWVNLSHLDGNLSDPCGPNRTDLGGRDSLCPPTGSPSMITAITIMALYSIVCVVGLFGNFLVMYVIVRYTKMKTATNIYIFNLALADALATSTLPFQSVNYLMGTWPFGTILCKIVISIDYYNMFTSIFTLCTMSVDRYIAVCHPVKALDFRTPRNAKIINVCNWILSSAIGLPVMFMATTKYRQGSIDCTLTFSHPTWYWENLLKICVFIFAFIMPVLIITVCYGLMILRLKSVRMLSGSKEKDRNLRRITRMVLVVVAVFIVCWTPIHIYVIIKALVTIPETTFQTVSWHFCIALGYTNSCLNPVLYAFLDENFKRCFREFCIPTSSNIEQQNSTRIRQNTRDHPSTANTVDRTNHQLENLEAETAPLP
Chain of Vasopressin V1a receptor (P37288 whole entry): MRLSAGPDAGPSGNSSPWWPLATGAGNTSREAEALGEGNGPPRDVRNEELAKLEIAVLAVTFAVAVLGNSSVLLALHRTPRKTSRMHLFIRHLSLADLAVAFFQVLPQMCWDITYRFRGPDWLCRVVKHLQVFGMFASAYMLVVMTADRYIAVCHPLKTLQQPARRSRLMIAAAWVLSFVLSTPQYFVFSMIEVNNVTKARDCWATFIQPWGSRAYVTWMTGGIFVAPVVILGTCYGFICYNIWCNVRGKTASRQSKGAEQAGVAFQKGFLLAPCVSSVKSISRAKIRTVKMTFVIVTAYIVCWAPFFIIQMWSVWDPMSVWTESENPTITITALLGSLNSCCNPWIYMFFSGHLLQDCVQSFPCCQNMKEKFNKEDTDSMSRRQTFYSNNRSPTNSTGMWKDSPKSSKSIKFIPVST
Chain of 3',5'-cyclic-AMP phosphodiesterase 4D (Q08499 whole entry): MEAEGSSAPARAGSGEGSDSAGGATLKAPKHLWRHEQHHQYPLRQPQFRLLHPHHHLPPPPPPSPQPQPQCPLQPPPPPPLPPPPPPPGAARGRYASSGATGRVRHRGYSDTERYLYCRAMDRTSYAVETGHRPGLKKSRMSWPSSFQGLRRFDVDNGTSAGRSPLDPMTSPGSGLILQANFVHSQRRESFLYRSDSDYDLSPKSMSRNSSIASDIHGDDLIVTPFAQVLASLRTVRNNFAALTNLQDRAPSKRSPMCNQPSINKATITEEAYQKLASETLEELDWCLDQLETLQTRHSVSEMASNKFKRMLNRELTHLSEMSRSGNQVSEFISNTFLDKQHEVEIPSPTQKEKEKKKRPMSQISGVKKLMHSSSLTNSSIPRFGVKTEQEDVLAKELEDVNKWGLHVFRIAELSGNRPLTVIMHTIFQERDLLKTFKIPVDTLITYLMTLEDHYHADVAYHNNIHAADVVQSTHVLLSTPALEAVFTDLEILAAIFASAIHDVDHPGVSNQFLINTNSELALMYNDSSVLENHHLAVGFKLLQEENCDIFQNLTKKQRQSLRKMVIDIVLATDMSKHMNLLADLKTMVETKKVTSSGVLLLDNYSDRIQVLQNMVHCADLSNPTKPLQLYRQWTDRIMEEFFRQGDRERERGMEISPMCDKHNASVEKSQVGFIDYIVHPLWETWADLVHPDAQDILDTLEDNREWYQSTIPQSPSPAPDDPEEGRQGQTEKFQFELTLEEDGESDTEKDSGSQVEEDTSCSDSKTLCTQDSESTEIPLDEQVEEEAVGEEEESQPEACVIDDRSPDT
Chain of 5-hydroxytryptamine receptor 2A (P28223 whole entry): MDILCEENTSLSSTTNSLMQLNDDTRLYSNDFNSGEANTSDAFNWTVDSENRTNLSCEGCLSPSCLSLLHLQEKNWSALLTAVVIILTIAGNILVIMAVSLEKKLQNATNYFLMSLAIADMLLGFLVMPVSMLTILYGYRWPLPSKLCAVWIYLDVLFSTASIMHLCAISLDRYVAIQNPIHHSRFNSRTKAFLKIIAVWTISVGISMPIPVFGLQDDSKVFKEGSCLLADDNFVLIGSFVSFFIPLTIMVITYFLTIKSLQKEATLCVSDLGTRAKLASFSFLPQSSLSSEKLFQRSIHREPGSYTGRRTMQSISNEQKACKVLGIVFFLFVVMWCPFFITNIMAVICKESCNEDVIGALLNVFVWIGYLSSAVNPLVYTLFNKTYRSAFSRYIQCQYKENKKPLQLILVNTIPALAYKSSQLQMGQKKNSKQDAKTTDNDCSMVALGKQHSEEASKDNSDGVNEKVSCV
Chain of Adenosine receptor A2a (P29274 whole entry): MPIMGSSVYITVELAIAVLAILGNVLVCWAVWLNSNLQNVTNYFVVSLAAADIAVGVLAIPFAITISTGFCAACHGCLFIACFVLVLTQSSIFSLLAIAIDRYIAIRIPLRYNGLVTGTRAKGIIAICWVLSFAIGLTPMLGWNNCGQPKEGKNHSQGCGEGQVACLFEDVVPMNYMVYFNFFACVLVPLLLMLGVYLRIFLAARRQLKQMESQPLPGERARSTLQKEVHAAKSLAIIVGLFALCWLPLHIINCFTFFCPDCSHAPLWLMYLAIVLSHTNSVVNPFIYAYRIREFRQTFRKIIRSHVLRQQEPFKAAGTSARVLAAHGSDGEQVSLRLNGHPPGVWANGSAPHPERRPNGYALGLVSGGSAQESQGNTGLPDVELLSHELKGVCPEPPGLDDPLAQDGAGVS
Chain of Beta-2 adrenergic receptor (P07550 whole entry): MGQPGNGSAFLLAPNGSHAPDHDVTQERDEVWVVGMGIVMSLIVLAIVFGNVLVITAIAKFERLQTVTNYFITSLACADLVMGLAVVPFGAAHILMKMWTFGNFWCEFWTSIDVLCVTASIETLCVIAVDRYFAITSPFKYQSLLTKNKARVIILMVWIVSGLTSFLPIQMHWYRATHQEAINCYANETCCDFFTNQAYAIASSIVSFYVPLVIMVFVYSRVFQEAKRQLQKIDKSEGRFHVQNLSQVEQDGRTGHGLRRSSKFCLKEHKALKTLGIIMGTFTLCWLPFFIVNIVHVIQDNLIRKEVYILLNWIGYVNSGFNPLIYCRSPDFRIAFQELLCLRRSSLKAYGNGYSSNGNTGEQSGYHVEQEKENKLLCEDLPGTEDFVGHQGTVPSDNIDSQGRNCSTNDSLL

With `C=C[C@@]1(C)CC(=O)[C@]2(O)[C@@]3(C)[C@@H](O)CCC(C)(C)[C@@H]3[C@H](OC(=O)CCN(C)C)[C@H](OC(C)=O)[C@@]2(C)O1` the AC50 (B2 bradykinin receptor) was over 30 µM, the AC50 [1] was over 30 µM and the AC50 (Mu-type opioid receptor) was over 30 µM. It also gave an AC50 [2] of over 30 µM, an AC50 (Vasopressin V1a receptor) of over 30 µM and an AC50 (Adenosine receptor A2a) of over 30 µM. The AC50 [3] was over 30 µM and the AC50 [4] was over 30 µM.

`Nc1ccc(C(=O)O)c(O)c1` [AMINOSALICYLIC ACID] showed an AC50 (B2 bradykinin receptor) of over 30 µM, an AC50 (Mu-type opioid receptor) of over 30 µM and an AC50 [2] of over 30 µM. It also gave an AC50 (Adenosine receptor A2a) of over 30 µM and an AC50 [4] of over 30 µM.

For `COc1cc(OC)c(C(=O)CCCN2CCCC2)c(OC)c1` [BUFLOMEDIL], the AC50 (B2 bradykinin receptor) was over 30 µM, the AC50 [5] was 29 µM and the AC50 (Mu-type opioid receptor) was over 30 µM. For the same compound, the AC50 [2] was over 30 µM, the AC50 (Adenosine receptor A2a) was over 30 µM and the AC50 [4] was over 30 µM. The AC50 [6] was over 30 µM.

In the case of `CS(=O)(=O)OCCCCOS(C)(=O)=O` [BUSULFAN], the AC50 (B2 bradykinin receptor) is reported as over 30 µM, the AC50 [5] is reported as over 30 µM and the AC50 (Mu-type opioid receptor) is reported as over 30 µM. It also gave an AC50 [2] of over 30 µM, an AC50 (Adenosine receptor A2a) of over 30 µM and an AC50 [4] of over 30 µM.

Compound `COc1cccc2c1C(=O)c1c(O)c3c(c(O)c1C2=O)C[C@@](O)(C(C)=O)C[C@@H]3O[C@H]1C[C@H](N)[C@H](O)[C@H](C)O1` [DAUNORUBICIN] has an AC50 (B2 bradykinin receptor) of over 10 µM, an AC50 (Mu-type opioid receptor) of over 30 µM and an AC50 [2] of 22 µM. The AC50 (Vasopressin V1a receptor) was 3.6 µM, the AC50 (Adenosine receptor A2a) was 30 µM and the AC50 [6] was over 30 µM.

`C[C@@H]1C[C@H]2[C@@H]3C[C@H](F)C4=CC(=O)C=C[C@]4(C)[C@@]3(F)[C@@H](O)C[C@]2(C)[C@H]1C(=O)CO` [DIFLUCORTOLONE] was tested, and the AC50 [1] was over 30 µM, the AC50 [2] was over 30 µM and the AC50 [3] was over 30 µM.

`CC1(C)C(/C=C/C=C/C=C/C=C2\N(CCCCS(=O)(=O)O)c3ccc4ccccc4c3C2(C)C)=[N+](CCCCS(=O)(=O)[O-])c2ccc3ccccc3c21` [INDOCYANINE GREEN ACID FORM] was tested, and the AC50 (B2 bradykinin receptor) was 26 µM, the AC50 [1] was 9.2 µM and the AC50 [5] was over 30 µM. It also gave an AC50 [2] of 2.3 µM, an AC50 (Vasopressin V1a receptor) of 7.7 µM and an AC50 (Adenosine receptor A2a) of over 30 µM.

For `Nc1nc2c(c(=O)[nH]1)N(C=O)C(CNc1ccc(C(=O)N[C@@H](CCC(=O)O)C(=O)O)cc1)CN2` (some centres undefined) [LEUCOVORIN], the AC50 (B2 bradykinin receptor) was over 30 µM, the AC50 [5] was over 30 µM and the AC50 (Mu-type opioid receptor) was over 30 µM. The AC50 [2] was over 30 µM, the AC50 (Adenosine receptor A2a) was over 30 µM and the AC50 [4] was over 30 µM. It also gave an AC50 [6] of over 30 µM.

`CCOC(=O)Nc1ccc2c(c1)N(C(=O)CCN1CCOCC1)c1ccccc1S2` [MORICIZINE] was tested, and the AC50 (B2 bradykinin receptor) was over 30 µM, the AC50 [1] was 22 µM and the AC50 [2] was 0.77 µM. The AC50 (Vasopressin V1a receptor) was over 30 µM, the AC50 (Adenosine receptor A2a) was over 30 µM and the AC50 [3] was over 30 µM. The AC50 [4] was over 30 µM.

`CCn1cc(C(=O)O)c(=O)c2cc(F)c(N3CCN(C)CC3)cc21` [PEFLOXACIN] was tested, and the AC50 (B2 bradykinin receptor) was over 30 µM, the AC50 [5] was over 30 µM and the AC50 (Mu-type opioid receptor) was over 30 µM. For the same compound, the AC50 [2] was over 30 µM, the AC50 (Adenosine receptor A2a) was over 30 µM and the AC50 [4] was over 30 µM.

`C[n+]1ccccc1/C=N/O` [PRALIDOXIME] was tested, and the AC50 [5] was over 30 µM, the AC50 (Mu-type opioid receptor) was over 30 µM and the AC50 [2] was 24 µM.

Work on `CCCNC(C)C(=O)Nc1ccccc1C` (centres undefined) [PRILOCAINE] yielded an AC50 (B2 bradykinin receptor) of over 30 µM, an AC50 [5] of over 30 µM and an AC50 (Mu-type opioid receptor) of over 30 µM. For the same compound, the AC50 [2] was over 30 µM, the AC50 (Adenosine receptor A2a) was over 30 µM and the AC50 [4] was over 10 µM.

`Cc1cc2nc3c(=O)[nH]c(=O)nc-3n(C[C@H](O)[C@H](O)[C@H](O)COP(=O)(O)O)c2cc1C` [RIBOFLAVIN 5'-PHOSPHATE] was tested, and the AC50 (B2 bradykinin receptor) was over 30 µM, the AC50 [1] was over 30 µM and the AC50 (Mu-type opioid receptor) was over 30 µM. For the same compound, the AC50 [2] was over 30 µM, the AC50 (Vasopressin V1a receptor) was over 30 µM and the AC50 (Adenosine receptor A2a) was over 30 µM. The AC50 [6] was over 30 µM.

With `CC(C)(C)NC[C@H](O)COc1nsnc1N1CCOCC1` [TIMOLOL] the AC50 (B2 bradykinin receptor) was over 30 µM, the AC50 [5] was 4.2 µM and the AC50 (Mu-type opioid receptor) was over 30 µM. The AC50 [2] was over 30 µM, the AC50 (Adenosine receptor A2a) was over 30 µM and the AC50 [4] was over 30 µM.

In the case of `COc1cc2nccc(Oc3ccc(NC(=O)Nc4cc(C)on4)c(Cl)c3)c2cc1OC` [TIVOZANIB], the AC50 [1] is reported as over 30 µM, the AC50 [2] is reported as 27 µM and the AC50 (Adenosine receptor A2a) is reported as over 3 µM. It also gave an AC50 [3] of 24 µM, an AC50 [4] of over 30 µM and an AC50 [6] of over 3 µM.

For `CN1[C@@H]2CC[C@H]1C[C@@H](OC(=O)c1c[nH]c3ccccc13)C2` [TROPISETRON], the AC50 (B2 bradykinin receptor) was over 30 µM, the AC50 (Mu-type opioid receptor) was over 30 µM and the AC50 [2] was over 30 µM. The AC50 (Adenosine receptor A2a) was over 30 µM and the AC50 [4] was over 30 µM.

— ChEMBL document CHEMBL5291721, “A preclinical secondary pharmacology resource illuminates target-adverse drug reaction associations of marketed drugs” (Nat Commun, 2023)
